Data taken from ChEMBL document CHEMBL1201862, “PubChem BioAssay data set” (2004).
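Results reflect a 48-hour exposure of cells in 96-well plates to compound at five concentrations. GI50: concentration for 50% inhibition of growth.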 The source made the active and inactive calls. No stated cut-off is given here; in the data, active = GI50 up to about 1.1 µM and inactive = higher.

Tests used:
Test in all cases: NCI anticancer screen, dose series, 48 h
KM-20L2 = system: KM-20L2
M19-MEL = system: M19-MEL
SNB-75 = system: SNB-75
SF-295 = system: SF-295
UACC-62 = system: UACC-62
OVCAR-8 = system: OVCAR-8
HOP-18 = system: HOP-18
UACC-257 = system: UACC-257
DLD-1 = system: DLD-1
CCRF-CEM = system: CCRF-CEM
786-0 = system: 786-0
MOLT-4 = system: MOLT-4
Malme-3M = system: Malme-3M
EKVX = system: EKVX
A549 = system: A549
HCT-116 = system: HCT-116
TK-10 = system: TK-10
NCI-H460 = system: NCI-H460
NCI-H226 = system: NCI-H226
UO-31 = system: UO-31
NCI-H23 = system: NCI-H23
HCT-15 = system: HCT-15
LXFL 529 = system: LXFL 529
OVCAR-3 = system: OVCAR-3
SNB-19 = system: SNB-19
SK-MEL-2 = system: SK-MEL-2
ACHN = system: ACHN
HT-29 = system: HT-29
DMS-273 = system: DMS-273
COLO 205 = system: COLO 205
RPMI-8226 = system: RPMI-8226
SF-539 = system: SF-539
SW-620 = system: SW-620
HOP-92 = system: HOP-92
HCC 2998 = system: HCC 2998
SF-268 = system: SF-268
U-251 = system: U-251
SK-OV-3 = system: SK-OV-3
OVCAR-5 = system: OVCAR-5
RXF 393 = system: RXF 393
RXF 631 = system: RXF 631
SNB-78 = system: SNB-78
LOX IMVI = system: LOX IMVI
SR = system: SR
SN12C = system: SN12C
HOP-62 = system: HOP-62
XF498 = system: XF498
HL-60 = system: HL-60
SK-MEL-28 = system: SK-MEL-28
IGROV-1 = system: IGROV-1
A498 = system: A498
SK-MEL-5 = system: SK-MEL-5
M14 = system: M14
DMS-114 = system: DMS-114
K562 = system: K562
OVCAR-4 = system: OVCAR-4
KM12 = system: KM12
CAKI-1 = system: CAKI-1
NCI-H522 = system: NCI-H522

For `COc1cc(Nc2cnc3cc(C(F)(F)F)ccc3n2)cc(OC)c1OC`, the GI50 (KM-20L2) was > 100 µM (inactive), the GI50 (M19-MEL) was > 100 µM (inactive) and the GI50 (SNB-75) was > 100 µM (inactive). For the same molecule, the GI50 (SF-295) was > 100 µM (inactive), the GI50 (UACC-62) was > 100 µM (inactive) and the GI50 (OVCAR-8) was > 100 µM (inactive). The GI50 (HOP-18) was > 100 µM (inactive), the GI50 (UACC-257) was > 100 µM (inactive) and the GI50 (DLD-1) was > 100 µM (inactive). For the same molecule, the GI50 (CCRF-CEM) was > 100 µM (inactive), the GI50 (786-0) was > 100 µM (inactive) and the GI50 (MOLT-4) was > 100 µM (inactive). The GI50 (Malme-3M) was > 100 µM (inactive), the GI50 (EKVX) was > 100 µM (inactive) and the GI50 (A549) was > 100 µM (inactive). The GI50 (HCT-116) was > 100 µM (inactive), the GI50 (TK-10) was > 100 µM (inactive) and the GI50 (NCI-H460) was > 100 µM (inactive). For the same molecule, the GI50 (NCI-H226) was > 100 µM (inactive), the GI50 (UO-31) was > 100 µM (inactive) and the GI50 (NCI-H23) was > 100 µM (inactive). For the same molecule, the GI50 (HCT-15) was greater than 100 µM, the GI50 (LXFL 529) was > 100 µM (inactive) and the GI50 (OVCAR-3) was > 100 µM (inactive). The GI50 (SNB-19) was > 100 µM (inactive), the GI50 (SK-MEL-2) was > 100 µM (inactive) and the GI50 (ACHN) was > 100 µM (inactive). For the same molecule, the GI50 (HT-29) was > 100 µM (inactive), the GI50 (DMS-273) was > 100 µM (inactive) and the GI50 (COLO 205) was > 100 µM (inactive). For the same molecule, the GI50 (RPMI-8226) was > 100 µM (inactive), the GI50 (SF-539) was > 100 µM (inactive) and the GI50 (SW-620) was > 100 µM (inactive). For the same molecule, the GI50 (HOP-92) was > 100 µM (inactive), the GI50 (HCC 2998) was > 100 µM (inactive) and the GI50 (SF-268) was > 100 µM (inactive). The GI50 (U-251) was > 100 µM (inactive), the GI50 (SK-OV-3) was > 100 µM (inactive) and the GI50 (OVCAR-5) was > 100 µM (inactive). For the same molecule, the GI50 (RXF 393) was > 100 µM (inactive), the GI50 (RXF 631) was > 100 µM (inactive) and the GI50 (SNB-78) was > 100 µM (inactive). For the same molecule, the GI50 (LOX IMVI) was > 100 µM (inactive), the GI50 (SR) was > 100 µM (inactive) and the GI50 (SN12C) was > 100 µM (inactive). The GI50 (HOP-62) was > 100 µM (inactive), the GI50 (XF498) was > 100 µM (inactive) and the GI50 (HL-60) was > 100 µM (inactive). The GI50 (SK-MEL-28) was > 100 µM (inactive).
`Nc1nn(CC(O)CO)c(=O)s1` (centres undefined) was tested, and the GI50 (IGROV-1) was > 100 µM (inactive), the GI50 (KM-20L2) was > 100 µM (inactive) and the GI50 (M19-MEL) was > 100 µM (inactive). For the same molecule, the GI50 (SNB-75) was 64.6 µM (inactive), the GI50 (SF-295) was > 100 µM (inactive) and the GI50 (UACC-62) was > 100 µM (inactive). The GI50 (OVCAR-8) was > 100 µM (inactive), the GI50 (HOP-18) was > 100 µM (inactive) and the GI50 (UACC-257) was > 100 µM (inactive). The GI50 (DLD-1) was > 100 µM (inactive), the GI50 (CCRF-CEM) was > 100 µM (inactive) and the GI50 (MOLT-4) was > 100 µM (inactive). For the same molecule, the GI50 (Malme-3M) was > 100 µM (inactive), the GI50 (EKVX) was > 100 µM (inactive) and the GI50 (A549) was > 100 µM (inactive). The GI50 (A498) was > 100 µM (inactive), the GI50 (HCT-116) was > 100 µM (inactive) and the GI50 (TK-10) was > 100 µM (inactive). For the same molecule, the GI50 (NCI-H460) was > 100 µM (inactive), the GI50 (NCI-H226) was > 100 µM (inactive) and the GI50 (UO-31) was > 100 µM (inactive). For the same molecule, the GI50 (SK-MEL-5) was > 100 µM (inactive), the GI50 (NCI-H23) was > 100 µM (inactive) and the GI50 (HCT-15) was greater than 100 µM. The GI50 (LXFL 529) was > 100 µM (inactive), the GI50 (OVCAR-3) was > 100 µM (inactive) and the GI50 (SNB-19) was > 100 µM (inactive). The GI50 (SK-MEL-2) was > 100 µM (inactive), the GI50 (ACHN) was > 100 µM (inactive) and the GI50 (HT-29) was > 100 µM (inactive). For the same molecule, the GI50 (DMS-273) was > 100 µM (inactive), the GI50 (COLO 205) was > 100 µM (inactive) and the GI50 (RPMI-8226) was > 100 µM (inactive). The GI50 (SF-539) was > 100 µM (inactive), the GI50 (M14) was > 100 µM (inactive) and the GI50 (SW-620) was > 100 µM (inactive). For the same molecule, the GI50 (DMS-114) was > 100 µM (inactive), the GI50 (HCC 2998) was > 100 µM (inactive) and the GI50 (SF-268) was > 100 µM (inactive). The GI50 (U-251) was > 100 µM (inactive), the GI50 (SK-OV-3) was > 100 µM (inactive) and the GI50 (OVCAR-5) was > 100 µM (inactive). For the same molecule, the GI50 (RXF 393) was > 100 µM (inactive), the GI50 (RXF 631) was > 100 µM (inactive) and the GI50 (LOX IMVI) was > 100 µM (inactive). The GI50 (SR) was > 100 µM (inactive), the GI50 (SN12C) was > 100 µM (inactive) and the GI50 (HOP-62) was > 100 µM (inactive). The GI50 (XF498) was > 100 µM (inactive), the GI50 (K562) was > 100 µM (inactive) and the GI50 (OVCAR-4) was > 100 µM (inactive). The GI50 (HL-60) was > 100 µM (inactive) and the GI50 (SK-MEL-28) was 7.69 µM (inactive).
In the case of `N#Cc1nc(Nc2ccc([N+](=O)[O-])cc2)sc1N`, the GI50 (IGROV-1) is reported as 23.4 µM (inactive), the GI50 (KM-20L2) is reported as 23.9 µM (inactive) and the GI50 (M19-MEL) is reported as 25.2 µM (inactive). For the same molecule, the GI50 (SNB-75) was 39.4 µM (inactive), the GI50 (SF-295) was 26.5 µM (inactive) and the GI50 (UACC-62) was 15.8 µM (inactive). The GI50 (OVCAR-8) was 19.4 µM (inactive), the GI50 (HOP-18) was 61.2 µM (inactive) and the GI50 (UACC-257) was 18.6 µM (inactive). The GI50 (KM12) was 21.9 µM (inactive), the GI50 (DLD-1) was 23.4 µM (inactive) and the GI50 (CCRF-CEM) was 3.4 µM (inactive). The GI50 (786-0) was 21.2 µM (inactive), the GI50 (MOLT-4) was 2.48 µM (inactive) and the GI50 (Malme-3M) was 23.9 µM (inactive). For the same molecule, the GI50 (EKVX) was 32.2 µM (inactive), the GI50 (A549) was 23.9 µM (inactive) and the GI50 (A498) was 26.2 µM (inactive). The GI50 (HCT-116) was 11.3 µM (inactive), the GI50 (TK-10) was 22.9 µM (inactive) and the GI50 (NCI-H460) was 28.8 µM (inactive). For the same molecule, the GI50 (NCI-H226) was 27.4 µM (inactive), the GI50 (UO-31) was 7.38 µM (inactive) and the GI50 (SK-MEL-5) was 3.79 µM (inactive). For the same molecule, the GI50 (CAKI-1) was 11.9 µM (inactive), the GI50 (NCI-H23) was 4.44 µM (inactive) and the GI50 (HCT-15) was 12.5 µM. The GI50 (LXFL 529) was 8.69 µM (inactive), the GI50 (OVCAR-3) was 16.9 µM (inactive) and the GI50 (SNB-19) was 17.7 µM (inactive). For the same molecule, the GI50 (SK-MEL-2) was 21.6 µM (inactive), the GI50 (ACHN) was 9.62 µM (inactive) and the GI50 (HT-29) was 33.5 µM (inactive). For the same molecule, the GI50 (DMS-273) was 21.2 µM (inactive), the GI50 (COLO 205) was 14 µM (inactive) and the GI50 (NCI-H522) was 4.05 µM (inactive). The GI50 (RPMI-8226) was 3.45 µM (inactive), the GI50 (SF-539) was 4.02 µM (inactive) and the GI50 (M14) was 22 µM (inactive). The GI50 (SW-620) was 20.5 µM (inactive), the GI50 (HOP-92) was 27.3 µM (inactive) and the GI50 (HCC 2998) was 11.7 µM (inactive). For the same molecule, the GI50 (SF-268) was 11.8 µM (inactive), the GI50 (U-251) was 9.68 µM (inactive) and the GI50 (SK-OV-3) was 26.9 µM (inactive). For the same molecule, the GI50 (OVCAR-5) was 28.6 µM (inactive), the GI50 (RXF 631) was 11.4 µM (inactive) and the GI50 (SNB-78) was 32.2 µM (inactive). The GI50 (LOX IMVI) was 7.19 µM (inactive), the GI50 (SR) was 0.675 µM (active) and the GI50 (SN12C) was 7.8 µM (inactive). For the same molecule, the GI50 (HOP-62) was 20.4 µM (inactive), the GI50 (XF498) was 17.3 µM (inactive) and the GI50 (K562) was 8.75 µM (inactive). The GI50 (OVCAR-4) was 33.8 µM (inactive), the GI50 (HL-60) was 3.53 µM (inactive) and the GI50 (SK-MEL-28) was 22.9 µM (inactive).
